Reference: US5457124A, “Carboxylic acid Leukotriene B4 antagonists” (Hoffmann-La Roche Inc., priority 1993, dated 1995)

Tests used:
leukotriene B4 = assay: Guinea Pig Bronchoconstriction, In Vivo (leukotriene B4 challenge); parameters: species or system guinea pig (Hartley strain); conditions: 0.1 mg/kg test compound dose p.o., 2 hr prior to leukotriene B4 (200 μg/kg i.v.); propranolol 0.1 mg/kg i.v.; male guinea pigs
Protocol: Guinea Pig Bronchoconstriction, In Vivo
Male guinea pigs (Hartley strain), weighing 300 to 500 g are anesthetized with urethane (2 g/kg) intraperitoneally and a polyethylene cannula is inserted into the jugular vein for drug administration. Tracheal pressure is recorded from a cannula inserted into the trachea and connected to a Gould P231D pressure transducer. After surgical preparation of the animals, a period of time is allowed for pulmonary functions to stabilize. Animals are then paralyzed with succinylcholine (1.2 mg/kg, i.v.) and mechanically respirated (Harvard rodent respirator) at 40 breaths/minute and 2.5 cc tidal volume. The test compound is administered p.o., 2 hr prior to leukotriene B4 administration. Propranolol (0.1 mg/kg) is administered intravenously 5 min prior to leukotriene B4 administration. Animals are then challenged with an intermediate constrictory dose of leukotriene B4 (200 μg/kg), delivered intravenously.
The change (cm H2 O) between pre and peak ventilatory pressure readings is averaged for 6 control and 6 drug treated animals. The percent inhibition is calculated from the formula:
((Control-Drug Treated)/Control)×100
When representative compounds of formulas A, B and C of the invention were utilized as the test compounds, the following results were obtained: […]

LTB4 Receptor = molecular target: T1, LTB4 Receptor (Homo sapiens, UniProt Q15722); assay: LTB4 Receptor Binding Assay (inhibition of 3H-LTB4 binding, isolated human neutrophils); conditions: 0.5 nM 3H-LTB4, 45 minutes on ice, Cheng-Prusoff, read-out: Ki, human neutrophil cells (inhibition of 3H-LTB4 binding)
T1 construct: Isolated human neutrophils in Gey's salt solution; endogenous in cells; host or cells: isolated human neutrophils
T1 sequence (Q15722 whole entry): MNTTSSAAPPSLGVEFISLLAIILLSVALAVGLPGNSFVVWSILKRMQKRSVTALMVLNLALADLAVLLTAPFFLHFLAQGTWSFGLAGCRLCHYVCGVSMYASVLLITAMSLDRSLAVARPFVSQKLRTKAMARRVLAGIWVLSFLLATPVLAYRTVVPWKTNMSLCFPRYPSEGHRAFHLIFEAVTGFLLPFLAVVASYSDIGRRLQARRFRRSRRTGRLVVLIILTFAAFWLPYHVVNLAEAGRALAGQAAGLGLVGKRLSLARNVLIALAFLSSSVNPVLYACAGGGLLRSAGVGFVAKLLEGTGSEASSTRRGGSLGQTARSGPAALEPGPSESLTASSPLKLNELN
Protocol: LTB4 Receptor Binding Assay
Binding assays can be performed in microliter wells. Isolated human neutrophils in Gey's salt solution are incubated on ice for 45 minutes with 0.5 nM ^3 H-LTB4 in the presence or absence of test compounds. Assays are terminated by adding 12 ml of ice cold 50 mM Tris buffer (pH 7.4) followed by rapid filtration under vacuum through GF/C filters. Radioactivity is determined by scintillation counting. Non specific binding is defined as the binding not displaced by 100 fold excess of unlabelled LTB4. Specific binding is defined as the difference between total binding and non-specific binding. Non linear analysis of the binding data is performed using LIGAND (Munson and Rodbard, 1980). Ki (Inhibition Constant) values were determined using the Cheng-Prusoff relationship (Cheng and Prusoff, 1973).
When representative compounds of formulas A, B or C of the invention were tested, the results as set forth in Table I and expressed as inhibition of ^3 H-LTB4 binding were obtained.

| Structure (SMILES) | % inhibition (of leukotriene B4-induced bronchoconstriction) (leukotriene B4) [%] | Ki (LTB4 Receptor) [nM] |
| --- | --- | --- |
| O=C(O)CCCOc1cccc(CCCCCCOc2ccc3c(c2CCCc2ccccc2)OCCC3=O)c1CCC(=O)O [2-(3-Carboxypropoxy)-6-[6-[[3,4-dihydro-4-oxo-8-(3-phenylpropyl)-2H-1-benzopyran-7-yl]oxy]hexyl]benzenepropanoic Acid] | 67 | 1 |
| O=C(O)CCCOc1cccc(CCCCCCOc2ccc3c(c2C/C=C/c2ccccc2)CCCC3=O)c1CCC(=O)O [(E)-2-(3-Carboxypropoxy)-6-[6-[[5,6,7,8-tetrahydro-5-oxo-1-(3-phenyl-2-propenyl)-2-naphthalenyl]oxy]hexyl]benzenepropanoic Acid] | 64 | 1 |
| O=C(O)CCCOc1cccc(CCCCCCOc2ccc3c(c2CCCc2ccccc2)CCCC3=O)c1CCC(=O)O [2-(3-Carboxypropoxy)-6-[6-[[5,6,7,8-tetrahydro-5-oxo-1-(3-phenylpropyl)-2-naphthalenyl]oxy]hexyl]benzenepropanoic Acid] | 78 | 2 |
